Key:
[1] = target: T1, Progesterone receptor (Homo sapiens) (UniProt P06401); assay: Binding affinity to progesterone receptor relative to R5020
T1 sequence (whole entry): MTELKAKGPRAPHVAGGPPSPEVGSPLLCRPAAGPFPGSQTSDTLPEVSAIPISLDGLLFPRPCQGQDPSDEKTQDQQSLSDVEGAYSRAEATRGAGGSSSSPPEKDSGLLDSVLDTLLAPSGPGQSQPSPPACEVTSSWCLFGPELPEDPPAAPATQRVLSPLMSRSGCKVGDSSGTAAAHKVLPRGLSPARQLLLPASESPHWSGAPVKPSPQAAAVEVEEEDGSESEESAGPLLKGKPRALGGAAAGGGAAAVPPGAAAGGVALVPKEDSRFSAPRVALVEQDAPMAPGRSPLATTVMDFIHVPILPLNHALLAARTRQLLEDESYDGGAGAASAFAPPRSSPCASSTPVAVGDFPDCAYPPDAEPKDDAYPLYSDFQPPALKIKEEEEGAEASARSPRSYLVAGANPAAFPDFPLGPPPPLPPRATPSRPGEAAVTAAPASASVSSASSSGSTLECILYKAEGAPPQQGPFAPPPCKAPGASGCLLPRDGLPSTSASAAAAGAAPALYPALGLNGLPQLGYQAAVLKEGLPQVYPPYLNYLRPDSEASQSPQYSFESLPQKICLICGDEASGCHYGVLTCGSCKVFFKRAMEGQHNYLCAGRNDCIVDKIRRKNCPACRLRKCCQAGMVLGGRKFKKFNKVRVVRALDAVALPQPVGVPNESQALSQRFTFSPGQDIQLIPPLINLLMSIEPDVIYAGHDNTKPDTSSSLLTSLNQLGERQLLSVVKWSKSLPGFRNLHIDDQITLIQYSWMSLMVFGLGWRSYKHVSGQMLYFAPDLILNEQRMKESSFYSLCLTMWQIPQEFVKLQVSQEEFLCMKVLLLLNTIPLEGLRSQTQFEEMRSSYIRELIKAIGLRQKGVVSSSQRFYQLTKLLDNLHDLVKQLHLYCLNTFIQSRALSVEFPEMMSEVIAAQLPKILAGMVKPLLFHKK

Progesterone receptor = target: T2, Progesterone receptor (Homo sapiens, UniProt P06401); assay: Binding affinity to progesterone receptor
T2 sequence (P06401 whole entry): T1 sequence (whole entry)

SMILES | relative binding affinity (RBA) [1] | Kd (Progesterone receptor) [nM]
CC1(C)OC(=S)Nc2ccc(-c3ccc(C#N)n3CCF)cc21 | 18.5 | 
CC1(C)OC(=S)Nc2ccc(-c3ccc(C#N)n3CCCF)cc21 | 0.99 | 
CCC(=O)[C@@]1(C)CC[C@H]2[C@@H]3CCC4=CC(=O)CCC4=C3CC[C@@]21C [PROMEGESTONE] |  | 0.4
